These results are taken from patent publication US20240058332A1, “CRAC CHANNEL INHIBITOR COMPOSITIONS” (CalciMedica, Inc., priority 2017, published 2024).

≈ marks a conversion by molar mass, not a printed value.

What all share (assay type): physicochemical
Data set [1] in a line: Solubility of Compound A in F57, summary of all 7 methods. Particulars: F57, thermodynamic from solid, read-out: Measured Solubility. The text has this: The term “solubility” used herein is defined as Compound A concentration where Compound A has reached a dissolution-precipitation equilibrium in F57 at a selected temperature. […] On the other hand, if Compound A concentration is higher than the solubility, Compound A is expected to precipitate over time.
(§1) To investigate the causes of precipitation and determine the Compound A solubility in F57 vehicle, the following seven (7) methods were applied to accurately determine solubility of Compound A in F57: • Method 1: Formulate Compound A in F57 at varied concentrations using GMP grade of Compound A and excipients with the regular process • Method 2: Formulate Compound A in F57 by introducing Compound A into a pre-formed F57 vehicle • Method 3: Observe Compound A in the previously made batches which already had extended incubation • Method 4: Conduct “top-down” and a “bottom-up” solubility studies in F57 vehicle • Method 5: Agitate Compound A GMP batch of F57 to promote the dissolution-precipitation equilibrium • Method 6: Add extra Form B seeds to Compound A GMP batch of F57 to promote Compound A crystal growth and precipitation • Method 7: Add Form B seeds to the samples made in method 1 to promote Compound A crystal growth and precipitation
For solubility determination, a F57 sample (usually about 0.5 mL) was filtered through a 0.22 μm centrifuge filter (Costar Spin-X®+, P/N8169), the filtrate (free of any solid particle) was collected, diluted with isopropanol, and tested for Compound A concentration using the following HPLC method. Dissolution-precipitation equilibrium is reached once the measured filtrate concentration is constant, and that concentration can be regarded as the solubility.
Table 40 summarizes the general conditions used in the seven methods to promote the dissolution-precipitation equilibrium. Detailed procedures are described in each method section.
The general observation and findings by all 7 methods are summarized in the table 50, according to the detailed observation and discussion pertaining to each method.

Data set [2] in a line: Initial formulations: Compound A saturation assay (HPLC) and appearance in template emulsion vehicles. As to conditions: emulsion composition containing ≥10% egg lecithin, aqueous with cosolvent or surfactant or cyclodextrin, thermodynamic from solid. How it is done: Ten compositions were prepared using various template compositions, containing lecithin, soybean oil (SBO) or medium chain triglycerides (MCT), glycerin or sucrose (non-ionic tonicity agent), edetate disodium di-hydrate (EDTA, chelating agent) in deionized water. Compound A (Form A) was added and agitated to reach solubility equilibrium at ambient room temperature. Each formulation was prepared in the following steps: Compound A (5 mg) was dispersed in each template vehicle. The formulation were then homogenized and at room temperature for >24 h and then passed sample through 0.45 μm filter for analysis (HPLC).

The nature of data set [3]: Stability of Formulation F-9 (small scale), 2 weeks at 2-8° C. and 25° C. Particulars: F-9 emulsion, after 2 weeks at 2-8° C. and 25° C. As to the method:
Procedures: Compound A (Form A) was added to F-9 vehicle containing MCT/Egg/lecithin/Sucrose/EDTA in a plastic tube. The formulation was mixed until uniform and complete drug dissolution. The emulsion was sterilized through 0.2 μm membrane filter. The samples were placed at 2-8° C. and 25° C. for stability evaluation for 2 weeks. The samples were tested for appearance, pH, Compound A assay and purity by HPLC, mean droplet size and globule size distribution in lipid injectable emulsions (USP<729>) and the results are shown in Table 17.

Data set [4] is described as follows: Solubility of Compound A in F57, Method 6: Form B seeds added to GMP batch. Particulars: F57 emulsion (GMP batch), 2 °C, thermodynamic from solid; 2-8° C.; read-out: API solubility in F57.
Description: as §1
For solubility determination, a F57 sample (usually about 0.5 mL) was filtered through a 0.22 μm centrifuge filter (Costar Spin-X®+, P/N8169), the filtrate (free of any solid particle) was collected, diluted with isopropanol, and tested for Compound A concentration using the following HPLC method. […]

Data set [5] can be described thus: Emulsion stability 1 week at 40° C. (appearance, assay, Z-Ave, PFAT5). Particulars: emulsions at 2-8° C. and after 8 days at 40° C. How it is done: Procedure: • Prepared all vehicles by mixing lipid and aqueous phase ingredients and homogenized. • Added Compound A (Form A) at 0.3% concentration in each vehicle. • Homogenized and mixed overnight until uniform or achieved equilibrium. • Filtered emulsion through 0.45 μm Nylon membrane filter. • Evaluated appearance, drug concentration by HPLC assay, average droplet size and PFAT5. • Selected the top 5-10 formulations achieving acceptance criteria initially. • Placed at 40° C. for up to 2 weeks to monitor emulsion stability. • Selected the top 3-5 formulations meeting the proposed requirements after 1-2 weeks at 40° C.
Methods: • Appearance: Record visual observation • Z-ave (nm): Measure mean oil droplet size by ZetaSizer (Malvern Instrument). Dilute 50 μL sample with 950 μL DI water at room temperature • Assay (%): Use the current HPLC method • Spin-X: Pass 0.5 mL emulsion through CoStar® Spin-X 0.2 μm Nylon filter (0.7 cm^2 surface area) at 3,144 G-force centrifuge for 60 sec at ambient room temperature. Evaluate completeness of emulsion passing through the filter.

Turning to `Cc1cccc(F)c1C(=O)Nc1cnc(-c2cc3c(cc2Cl)OC(F)(F)O3)cn1` [Compound A, N-(5-(6-chloro-2,2-difluorobenzo[d][1,3]dioxol-5-yl)pyrazin-2-yl)-2-fluoro-6-methylbenzamide], the solubility in data set [1] (in F57, Method 2, Equilibrium reached) is 1800 to 1900 µg/mL (≈ 4.27 to 4.5 mM); in data set [1] (in F57, Method 4, Equilibrium reached) it was 1800 µg/mL (≈ 4.27 mM); in data set [1] (in F57, Method 5, Equilibrium reached), 1800 to 1900 µg/mL (≈ 4.27 to 4.5 mM); in data set [1] (in F57, Method 6, Equilibrium reached), 1800 to 1900 µg/mL (≈ 4.27 to 4.5 mM); in data set [1] (in F57, Method 7, Equilibrium reached), 1800 to 1900 µg/mL (≈ 4.27 to 4.5 mM); in data set [2], no less than 2400 µg/mL. The solubility in data set [4] lay in the range of 1800 to 1900 µg/mL (≈ 4.27 to 4.5 mM). In data set [3], the “appearance and HPLC assay on stability” value is “remained unchanged”. In data set [5], the “% purity on stability” value is given as 99.9%.

Broadly, the solubility is the dissolved amount per volume that the medium holds.
